The values below come from patent publication US20240366624A1, “METHODS AND COMPOSITIONS FOR TREATING THROMBOTIC DISEASE” (Washington University, priority 2023, published 2024).

Each structure is given as a SMILES string.

The assay relates to mouse platelets. Nature of the assay: Flow cytometry of P-selectin exposure and αIIbβ3 integrin activation, mouse platelets. It is filed as cell-based. To be noted: 3 to 10 μM, mouse platelets, thrombin or CRP. Here is the method: FIG. 10(A-E) is an exemplary embodiment of 15E9 not affecting platelet activation and aggregation in accordance with the present disclosure. Mouse platelets were treated with 0.02-0.03 (FIG. 10A P-selectin, FIG. 10B aIIbβ3) or 0.025 U/ml thrombin (FIG. 10C) in the presence of 10 μg/ml mouse IgG2a (IgG2a) or a blocking anti-ERO1α antibody (15E9). Flow cytometry (FIG. 10(A-B)) and aggregation (FIG. 10C) assays were performed. FIG. 10D: Human platelets were treated with 0.025 U/ml thrombin in the presence of mouse IgG2a (mIgG2a) or 10 μg/ml 15E9 and 16B6, followed by measuring aggregation. […] P values determined by unpaired Student's t-test (vs. mIgG1).
FIG. 18(A-R) is an exemplary embodiment of novel small-molecule inhibitors recapitulating the defect in Ero1α (endoplasmic reticulum oxidoreductase 1a)-null platelets in accordance with the present disclosure. […] After incubation with a different concentration of B12-5, the specific interaction between B12-5 and ERO1α was measured by subtracting the nonspecific binding. The KD value was calculated from the Kon and Koff values. […] P values determined by ANOVA and Dunnett test (FIG. 18(B-E), FIG. 18(1-L), and FIG. 18(O-R) [for B12-5]) or Student t test (FIG. 18M, FIG. 18N, and FIG. 18(O-R) [for BAPTA (1,2-bis(o-aminophenoxy)ethane-N,N,N′,N′-tetraacetic acid)]). […]
On the technique in general: Flow cytometry measures light scatter and fluorescence of single cells or particles in a stream.

`O=C(CSc1nc(O)cc(O)n1)N1c2ccccc2Sc2ccccc21` [B12-5]: the “P-selectin exposure and αIIbβ3 activation” value was “significantly reduced”.
